Experimental data taken from paper PMC6941952, “A homogeneous bioluminescent immunoassay to probe cellular signaling pathway regulation” (Communications Biology, 2020).

Tested on: phospho-IκBα (Ser32)
Test: NanoBiT cell-based immunoassay, phosphorylated IκBα in MCF-7 cells
Design: species or system human
Conditions: for Raw data / Subtract reagent background: TNF
Method: Prior to NanoBiT Cell-Based Immunoassay, 50,000 cells were seeded in 160 µl of complete growth media per well of a 96-well plate and incubated overnight. The cells were checked under microscope and it was determined that 50,000 cells per well in 96-well plate is under 90% confluency for all cells tested. If necessary, the cell culture media were replaced with serum-free media after the cells were stably adherent on the plate and incubated overnight. To treat cells with activators or inhibitors, medium was changed to 30 µl of medium containing inhibitors. If activation of a specific pathway is needed, the cells were stimulated with 10 µl of medium containing activators. To lyse the cells, 10 µl of lysis buffer containing 0.1% digitonin diluted in 1X immunoassay buffer with protease and phosphatase inhibitors was added and the plates were mixed vigorously for 20 min. Then, 50 µl of an antibody mix containing two primary antibodies against the target protein and NanoBiT detecting antibodies (0.3 µl each per well), diluted in 1X immunoassay buffer was added to the lysates. The plates were incubated at 23 °C for 90 min, followed by the addition of 25 µl of Nano-Glo® reagent consisting of Nano-Glo® Luciferase Assay Substrate mixed with 1X immunoassay buffer. Luminescence was measured using a plate-reading luminometer.
In all, 50,000 MCF-7 cells were seeded in 160 µl complete growth medium per well of a 96-well plate and incubated overnight. Half of the cells were treated with 50 ng per ml TNFα and half with vehicle. Cells were lysed as described above and a mixture of NanoBiT secondary antibodies with primary antibodies at the matrix concentrations described in Fig. 2a were added. After 90 min incubation, the Nano-Glo® reagent was added to the reactions as described above and luminescence was measured using a plate-reading luminometer.
Single dose or dose response inhibitor treatments were performed prior to activation of the pathways as follows. For IκBα, the cells were treated in 30 µl medium with IKK16 or MG132 for 60 min before the addition of 10 µl of DMEM containing appropriate concentration of TNFα. To measure phosphorylation of AKT or STAT3, the corresponding NanoBiT immunoassays were developed with MCF-7 or A431 cells, respectively, according the same scheme used to develop the IκBα assay using the primary antibodies for AKT and STAT3 described in the reagents section. For the AKT assay, MCF-7 cells were incubated overnight in phenol-red free DMEM medium (Gibco #21063-029) without serum. Treatment with LY294002 was performed in 30 µl medium and cells were incubated for 60 min before the addition of 1 µM Insulin. To measure STAT3 phosphorylation, A431 cells were incubated overnight in DMEM medium without serum. […] After addition of the stimulators, the cells were incubated for additional times as follows. IκBα phosphorylation and degradation analyses required both time courses and single time points as described in figures. […] The NanoBiT immunoassay protocol was followed as described above.
All 96-well assay plates were read using a GloMax® 96 Microplate Luminometer from Promega. The instrument was set to 0.5 s integration time. In order to obtain net change of signal, the reagent background values (signal from the well containing all reagent except primary antibodies) were subtracted from the sample values. To plot and analyze the data, Microsoft Excel and GraphPad Prism® Software were used. IC50 values were determined by using a nonlinear regression fit to a sigmoidal dose response (variable slope).

[1] = plate #1, IkB Ab #1 75 ng/ml, P-IkB Ab #1 150 ng/ml
[2] = plate #1, IkB Ab #1 75 ng/ml, P-IkB Ab #1 300 ng/ml
[3] = plate #1, IkB Ab #1 75 ng/ml, P-IkB Ab #1 600 ng/ml
[4] = plate #1, IkB Ab #1 75 ng/ml, P-IkB Ab #1 1200 ng/ml
[5] = plate #1, IkB Ab #1 150 ng/ml, P-IkB Ab #1 75 ng/ml
[6] = plate #1, IkB Ab #1 150 ng/ml, P-IkB Ab #1 150 ng/ml
[7] = plate #1, IkB Ab #1 150 ng/ml, P-IkB Ab #1 300 ng/ml
[8] = plate #1, IkB Ab #1 150 ng/ml, P-IkB Ab #1 600 ng/ml
[9] = plate #1, IkB Ab #1 150 ng/ml, P-IkB Ab #1 1200 ng/ml
[10] = plate #1, IkB Ab #1 300 ng/ml, P-IkB Ab #1 75 ng/ml
[11] = plate #1, IkB Ab #1 300 ng/ml, P-IkB Ab #1 150 ng/ml
[12] = plate #1, IkB Ab #1 300 ng/ml, P-IkB Ab #1 300 ng/ml
[13] = plate #1, IkB Ab #1 300 ng/ml, P-IkB Ab #1 600 ng/ml
[14] = plate #1, IkB Ab #1 300 ng/ml, P-IkB Ab #1 1200 ng/ml
[15] = plate #1, IkB Ab #1 600 ng/ml, P-IkB Ab #1 75 ng/ml
[16] = plate #1, IkB Ab #1 600 ng/ml, P-IkB Ab #1 150 ng/ml
[17] = plate #1, IkB Ab #1 600 ng/ml, P-IkB Ab #1 300 ng/ml
[18] = plate #1, IkB Ab #1 600 ng/ml, P-IkB Ab #1 600 ng/ml
[19] = plate #1, IkB Ab #1 600 ng/ml, P-IkB Ab #1 1200 ng/ml
[20] = plate #1, IkB Ab #1 1200 ng/ml, P-IkB Ab #1 75 ng/ml
[21] = plate #1, IkB Ab #1 1200 ng/ml, P-IkB Ab #1 150 ng/ml
[22] = plate #1, IkB Ab #1 1200 ng/ml, P-IkB Ab #1 300 ng/ml
[23] = plate #1, IkB Ab #1 1200 ng/ml, P-IkB Ab #1 600 ng/ml
[24] = plate #1, IkB Ab #1 1200 ng/ml, P-IkB Ab #1 1200 ng/ml
[25] = plate #2, IkB Ab #2 75 ng/ml, P-IkB Ab #1 75 ng/ml

Substance: TNFα
- Raw data [1]: 38800
- Subtract reagent background [1]: 19890
- Raw data [2]: 36190
- Subtract reagent background [2]: 17280
- Raw data [3]: 29500
- Subtract reagent background [3]: 10590
- Raw data [4]: 23430
- Subtract reagent background [4]: 4520
- Raw data [5]: 31770
- Subtract reagent background [5]: 12860
- Raw data [6]: 37260
- Subtract reagent background [6]: 18350
- Raw data [7]: 34880
- Subtract reagent background [7]: 15970
- Raw data [8]: 27610
- Subtract reagent background [8]: 8700
- Raw data [9]: 22810
- Subtract reagent background [9]: 3900
- Raw data [10]: 28900
- Subtract reagent background [10]: 9990
- Raw data [11]: 32520
- Subtract reagent background [11]: 13610
- Raw data [12]: 32030
- Subtract reagent background [12]: 13120
- Raw data [13]: 24980
- Subtract reagent background [13]: 6070
- Raw data [14]: 21690
- Subtract reagent background [14]: 2780
- Raw data [15]: 24730
- Subtract reagent background [15]: 5820
- Raw data [16]: 27710
- Subtract reagent background [16]: 8800
- Raw data [17]: 26820
- Subtract reagent background [17]: 7910
- Raw data [18]: 24690
- Subtract reagent background [18]: 5780
- Raw data [19]: 22170
- Subtract reagent background [19]: 3260
- Raw data [20]: 22890
- Subtract reagent background [20]: 3980
- Raw data [21]: 24970
- Subtract reagent background [21]: 6060
- Raw data [22]: 24110
- Subtract reagent background [22]: 5200
- Raw data [23]: 24380
- Subtract reagent background [23]: 5470
- Raw data [24]: 22870
- Subtract reagent background [24]: 3960
- Fold change (TNF-treated /Non-treated) (plate #1, IkB Ab #1 (Mouse) 75 ng/ml, P-IkB Ab #1 (Rabbit) 150 ng/ml): 8.219
- Fold change (TNF-treated /Non-treated) (plate #1, IkB Ab #1 (Mouse) 75 ng/ml, P-IkB Ab #1 (Rabbit) 150 ng/ml, listed as TNF): 8.2
- Fold change (TNF-treated /Non-treated) (plate #1, IkB Ab #1 (Mouse) 75 ng/ml, P-IkB Ab #1 (Rabbit) 300 ng/ml): 4.364
- Fold change (TNF-treated /Non-treated) (plate #1, IkB Ab #1 (Mouse) 75 ng/ml, P-IkB Ab #1 (Rabbit) 300 ng/ml, listed as TNF): 4.4
- Fold change (TNF-treated /Non-treated) (plate #1, IkB Ab #1 (Mouse) 75 ng/ml, P-IkB Ab #1 (Rabbit) 600 ng/ml): 2.688
- Fold change (TNF-treated /Non-treated) (plate #1, IkB Ab #1 (Mouse) 75 ng/ml, P-IkB Ab #1 (Rabbit) 600 ng/ml, listed as TNF): 2.7
- Fold change (TNF-treated /Non-treated) (plate #1, IkB Ab #1 (Mouse) 75 ng/ml, P-IkB Ab #1 (Rabbit) 1200 ng/ml): 1.8374
- Fold change (TNF-treated /Non-treated) (plate #1, IkB Ab #1 (Mouse) 75 ng/ml, P-IkB Ab #1 (Rabbit) 1200 ng/ml, listed as TNF): 1.8
- Fold change (TNF-treated /Non-treated) (plate #1, IkB Ab #1 (Mouse) 150 ng/ml, P-IkB Ab #1 (Rabbit) 150 ng/ml): 9.557
- Fold change (TNF-treated /Non-treated) (plate #1, IkB Ab #1 (Mouse) 150 ng/ml, P-IkB Ab #1 (Rabbit) 150 ng/ml, listed as TNF): 9.6
- Fold change (TNF-treated /Non-treated) (plate #1, IkB Ab #1 (Mouse) 150 ng/ml, P-IkB Ab #1 (Rabbit) 300 ng/ml): 4.656
- Fold change (TNF-treated /Non-treated) (plate #1, IkB Ab #1 (Mouse) 150 ng/ml, P-IkB Ab #1 (Rabbit) 300 ng/ml, listed as TNF): 4.7
- Fold change (TNF-treated /Non-treated) (plate #1, IkB Ab #1 (Mouse) 150 ng/ml, P-IkB Ab #1 (Rabbit) 600 ng/ml): 2.797
- Fold change (TNF-treated /Non-treated) (plate #1, IkB Ab #1 (Mouse) 150 ng/ml, P-IkB Ab #1 (Rabbit) 600 ng/ml, listed as TNF): 2.8
- Fold change (TNF-treated /Non-treated) (plate #1, IkB Ab #1 (Mouse) 150 ng/ml, P-IkB Ab #1 (Rabbit) 1200 ng/ml): 0.8904
- Fold change (TNF-treated /Non-treated) (plate #1, IkB Ab #1 (Mouse) 150 ng/ml, P-IkB Ab #1 (Rabbit) 1200 ng/ml, listed as TNF): 0.9
- Fold change (TNF-treated /Non-treated) (plate #1, IkB Ab #1 (Mouse) 300 ng/ml, P-IkB Ab #1 (Rabbit) 150 ng/ml, listed as TNF): 4.1
- Fold change (TNF-treated /Non-treated) (plate #1, IkB Ab #1 (Mouse) 300 ng/ml, P-IkB Ab #1 (Rabbit) 300 ng/ml, listed as TNF): 3.3
- Fold change (TNF-treated /Non-treated) (plate #1, IkB Ab #1 (Mouse) 300 ng/ml, P-IkB Ab #1 (Rabbit) 600 ng/ml, listed as TNF): 1.6
- Fold change (TNF-treated /Non-treated) (plate #1, IkB Ab #1 (Mouse) 300 ng/ml, P-IkB Ab #1 (Rabbit) 1200 ng/ml, listed as TNF): 1.0
- Fold change (TNF-treated /Non-treated) (plate #1, IkB Ab #1 (Mouse) 600 ng/ml, P-IkB Ab #1 (Rabbit) 75 ng/ml, listed as TNF): 4.9
- Fold change (TNF-treated /Non-treated) (plate #1, IkB Ab #1 (Mouse) 600 ng/ml, P-IkB Ab #1 (Rabbit) 150 ng/ml, listed as TNF): 5.1
- Fold change (TNF-treated /Non-treated) (plate #1, IkB Ab #1 (Mouse) 600 ng/ml, P-IkB Ab #1 (Rabbit) 300 ng/ml, listed as TNF): 3.0
- Fold change (TNF-treated /Non-treated) (plate #1, IkB Ab #1 (Mouse) 600 ng/ml, P-IkB Ab #1 (Rabbit) 600 ng/ml, listed as TNF): 2.3
- Fold change (TNF-treated /Non-treated) (plate #1, IkB Ab #1 (Mouse) 600 ng/ml, P-IkB Ab #1 (Rabbit) 1200 ng/ml, listed as TNF): 1.1
- Fold change (TNF-treated /Non-treated) (plate #1, IkB Ab #1 (Mouse) 1200 ng/ml, P-IkB Ab #1 (Rabbit) 75 ng/ml, listed as TNF): 2.5
- Fold change (TNF-treated /Non-treated) (plate #1, IkB Ab #1 (Mouse) 1200 ng/ml, P-IkB Ab #1 (Rabbit) 150 ng/ml, listed as TNF): 3.0
- Fold change (TNF-treated /Non-treated) (plate #1, IkB Ab #1 (Mouse) 1200 ng/ml, P-IkB Ab #1 (Rabbit) 300 ng/ml, listed as TNF): 1.9
- Fold change (TNF-treated /Non-treated) (plate #1, IkB Ab #1 (Mouse) 1200 ng/ml, P-IkB Ab #1 (Rabbit) 600 ng/ml, listed as TNF): 2.0
- Fold change (TNF-treated /Non-treated) (plate #1, IkB Ab #1 (Mouse) 1200 ng/ml, P-IkB Ab #1 (Rabbit) 1200 ng/ml, listed as TNF): 1.8
- Raw data [25]: 20520
- Subtract reagent background [25]: 2000
- Raw data (plate #2, IkB Ab #2 75 ng/ml, P-IkB Ab #1 150 ng/ml): 20690
